# Experimental data: patent US9791449B2, “Ovarian cancer stem cells and methods of isolation and uses thereof” (THE GENERAL HOSPITAL CORPORATION, priority 2011, dated 2017)
# Entries after “also recorded” stand apart in the source; their conditions may differ.
# How the values were obtained:
# [1] = system: ovarian cancer cells marked by CD44, CD24, and Epcam (3+); conditions: after treatment with chemotherapeutics; cited from earlier work
# [2] = system: 3+/Ecad− OVCAR-5 cells; assay: Colony formation assay of FACS-separated cells; assay type: cell-based, human; conditions: OVCAR-5 3+/Ecad− cells, 2000 cells in six-well plates, MIS 30 ug/ml or Doxorubicin 30 nM vs media, 14 days
# Experimental: Colony formation was performed as previously described (4; wei 2010). 3+/Ecad− or 3−/Ecad+ cells separated from the ovarian cancer cell lines were treated with MIS or doxorubicin, cisplatin, or taxol, then plated on 6-well plates containing 2 ml/well complete DMEM medium at 500, 1000, or 2000 cells/well, and incubated for 14 days at 37° C., with a media change at day 7. Cells separated from primary ascites were plated on 12-well plates coated by metrigel or by agarose for colony formation assays at 25,000, 50,000, or 100,000 cells/well. Cells were seeded on 1:2 metrigel or in 0.4% agarose over a 0.8% layer, and incubated for 3-4 weeks at 37° C. At day 14 (cell lines) or day 21 (ascites), plates were washed with 1×PBS, and cells fixed with methanol. Resulting colonies were stained with Giemsa and the stained area captured and analyzed using Image J (Rasband, NIH, USA, http://rsb.info.nih.gov/ij/). Large colonies greater than 4 mm at 10× magnification were also counted and compared.
# [3] = system: MOVCAR-7 and MOVCAR-8 cell lines; assay: qPCR of CDK inhibitor mRNAs relative to GAPDH; assay type: cell-based, mouse
# Experimental: Total microRNA (miRNAs) were extracted from the different cell lines HOSE-4, HOSE-6, OVCAR-5, OVCAR-3, OVCAR-8, IGROV-1, and SKOV-3 using the miRNeasy Mini kit (QIAGEN) and reverse-transcribed to cDNAs using the TaqMan MicroRNA Reverse Transcription Kit (Applied Biosystems). Levels of Let-7c miRNAs were measured by quantitative PCR using TagMan Let-7 probes (Applied Biosystems; part no. 4373167) with U47 RNA as internal standard for normalization. Total mRNAs were also extracted from separated and unseparated OVCAR-5, MOVCAR-7, and MOVCAR-8 cell lines using an RNeasy Mini kit (QIAGEN) and reverse-transcribed to cDNAs using the SuperScript III Reverse Transcription Kit (Invitrogen). Levels of Lin28 and cyclin-dependent kinase (CDK) inhibitor mRNAs were measured by quantitative PCR with GAPDH as an internal standard using the following primers: […]
# LIN28 F ([…])(SEQ ID NO: 34) and R ([…])(SEQ ID NO: 35); p15 F ([…])(SEQ ID NO: 36) and R ([…])(SEQ ID NO: 37); p16 F ([…])(SEQ ID NO: 38) and R ([…])(SEQ ID NO: 39); p18 F ([…])(SEQ ID NO: 40) and R ([…])(SEQ ID NO: 41); p19F ([…])(SEQ ID NO: 42) and R ([…])(SEQ ID NO: 43); p21 F ([…])(SEQ ID NO: 44) and R ([…])(SEQ ID NO: 45); p27 F ([…])(SEQ ID NO: 46) and R ([…])(SEQ ID NO: 47); CDK2 F ([…])(SEQ ID NO: 48) and R ([…])(SEQ ID NO: 49); CDK4 F ([…])(SEQ ID NO: 50) and R([…])(SEQ ID NO: 51); CDK6 F ([…])(SEQ ID NO: 52) and R ([…])(SEQ ID NO: 53); and GAPDH F ([…])(SEQ ID NO: 54) and R ([…])(SEQ ID NO: 55). Relative fold changes of Let-7c miRNAs and Lin28 and CDK inhibitor mRNAs were calculated as ΔCt or ΔΔCt (1) (n=3 for each primer).
# [4] = system: OVCAR-5 cells; assay: Cell cycle analysis by flow cytometry; assay type: cell-based, human
# Experimental: OVCAR-5 was grown to 50-60% confluency in DMEM with 10% FCS, untreated or treated with 100 μg/mL (714 nM) MIS or 60 nM doxorubicin for 48 h, harvested, and incubated with 10 μg/mL Hoechst 33342 at 37° C. for 30 min or 40 μg/mL propidium iodide (Sigma) at 25° C. for 30 min. Cells were stained with anti-human CD24-PE, anti-mouse/human CD44-APC/Cy7, anti-human Epcam-APC, and anti-human Ecadherin-FITC for 20 min at 4° C. and fixed in paraformaldehyde (1%), and the cell cycle was analyzed using the SORP LSRII.
# [5] = system: OVCAR-5 cells; assay: Cell proliferation assay in monolayer (trypan blue count plus flow cytometry); assay type: cell-based, human; conditions: for proliferation of 3+/Ecad+ population / proliferation of 3+/Ecad− population: OVCAR-5, doxorubicin 60 nM, 1, 2 and 3 days
# Experimental: OVCAR-5 cells were seeded in T-75 flasks at different densities (1.6×10^6, 1.2×10^6, 0.8×10^6 cells) with DMEM in 10% FCS, incubated for 24 h, and then treated with either PBS (control) or 60 nM doxorubicin for 24, 48, and 72 h. Cells seeded at 0.8×10^6 were also treated with cisplatin (0.2, 0.5, 1 μM) for 72 h. Harvested total viable cells were counted by trypan blue staining in a hemocytometer and stained with antihuman CD24-PE, anti-mouse/human CD44-APC/Cy7, anti-human Epcam-APC, and anti-human Ecadherin-FITC. Flow cytometry was performed to analyze for the absolute number of 3+/Ecad− and 3+/Ecad+ cells, which were calculated from the total viable cell numbers by analyzing the percentage of each population adjusted for seeding density (1×, 1.5×, and 2×, respectively).
# [6] = absolute cell number, listed as Doxorubicin
# [7] = OVCAR-5, cisplatin 0.2, 0.5 and 1 μM, 3 d, absolute cell number
Structure (SMILES),relative numbers of 3+ enriched population compared to 3− cells [1],colony formation of 3+/Ecad− cells [2],colony formation of 3+/Ecad− cells ([2]; listed as Doxorubicin),"p15 expression ([3]; MOVCAR-7 and -8, 50 μg/mL MIS or 60 nM doxorubicin vs vehicle, 4 h)","other CDK inhibitors mRNA levels (p18, p19, p21, p27) ([3]; MOVCAR-7 or -8, 50 μg/mL MIS or 60 nM doxorubicin, 4 h)","kinases tested (CDK2, CDK4, CDK6) ([3]; transgenic cell lines treated with MIS or doxorubicin, data not shown)","percentage of 3+/Ecad− cells in G1 ([4]; 100 μg/mL (714 nM) MIS or 60 nM doxorubicin, 48 h)","S or G2 distributions of either 3+Ecad− or 3−Ecad+ ([4]; doxorubicin 60 nM, 2 d)",proliferation of 3+/Ecad+ population ([5]; absolute cell number),proliferation of 3+/Ecad− population ([5]; absolute cell number),"proliferation of 3+/Ecad+ population [5, 6]","proliferation of 3+/Ecad− population [5, 6]","proliferation of total viable cells ([5]; unseparated OVCAR-5, doxorubicin 60 nM, 1, 2 and 3 days)","proliferation of total viable cells ([5]; unseparated OVCAR-5, doxorubicin 60 nM, 1, 2 and 3 days, listed as Doxorubicin)","proliferation of total viable cells ([5]; OVCAR-5, cisplatin 0.2, 0.5 and 1 μM, 3 d)","proliferation of 3+Ecad− population [5, 7]","proliferation of 3−Ecad+ population [5, 7]","proliferation of 3+Ecad− population ([5]; OVCAR-5, cisplatin 0.2, 0.5 and 1 μM, 3 d, absolute cell number, listed as Cisplatin)"
CC(=O)O[C@H]1C(=O)[C@@]2(C)[C@H]([C@H](OC(=O)c3ccccc3)[C@]3(O)C[C@H](OC(=O)[C@H](O)[C@@H](NC(=O)c4ccccc4)c4ccccc4)C(C)=C1C3(C)C)[C@]1(OC(C)=O)CO[C@@H]1C[C@@H]2O [paclitaxel],increased,,,,,,,,,,,,,,,,,
"COc1cccc2c1C(=O)c1c(O)c3c(c(O)c1C2=O)C[C@@](O)(C(=O)CO)C[C@@H]3O[C@H]1C[C@H](N)[C@H](O)[C@H](C)O1 [doxorubicin, reference compound]",increased,significantly increased number of colonies; also recorded: significantly increases; also recorded: stimulated; also recorded: paradoxically increased; also recorded: significantly increased colony numbers,paradoxically increased significantly,decreased; also recorded: significant and opposite responses,did not regulate significantly,unaffected,decreased,did not statistically affect,decreased,paradoxically increased,inhibits proliferation,stimulates,significant inhibition,inhibits proliferation,,,,
N.N.[Cl][Pt][Cl] [cisplatin],increased,,,,,,,,,,,,,,inhibits proliferation,increased,inhibits proliferation,stimulates
